Laboratory results published in ChEMBL document CHEMBL1134146, “Development of specific CXCR4 inhibitors possessing high selectivity indexes as well as complete stability in serum based on an anti-HIV peptide T140” (Bioorg Med Chem Lett, 2001).

What was measured:
[1] = Selectivity index determined for CC50 (test II) to EC50 x 10e3; format: functional
[2] = Selectivity index determined for CC50 (test I) to EC50 x 10e3; format: functional
MT4 = assay: Cytotoxic concentration of compound required to reduce the viability of mock infected MT-4 cells on the MTT assay in test I; format: functional; conditions: Homo sapiens
PBMC (Homo sapiens) = assay: Cytotoxic concentration of compound determined by the […] exclusion staining method in PBMC by test II

In the case of `NCCCC[C@H]1NC(=O)[C@H](CCCN=C(N)N)NC(=O)[C@@H](Cc2ccc(O)cc2)NC(=O)[C@H](NC(=O)[C@@H](NC(=O)[C@H](CCCN=C(N)N)NC(=O)[C@@H](N)CCCN=C(N)N)c2ccc3ccccc3c2)CSSC[C@H](C(=O)N[C@@H](CCCN=C(N)N)C(N)=O)NC(=O)[C@H](CCCNC(N)=O)NC(=O)[C@H](CCCN=C(N)N)NC(=O)[C@H](Cc2ccc(O)cc2)NC(=O)[C@H]2CCCN2C(=O)[C@H](CCCNC(N)=O)NC1=O`, the SI [1] is reported as 21 and the SI [2] is reported as > 22.

With `NCCCC[C@H]1NC(=O)[C@H](CCCN=C(N)N)NC(=O)[C@@H](Cc2ccc(O)cc2)NC(=O)[C@H](NC(=O)[C@@H](NC(=O)[C@H](CCCN=C(N)N)NC(=O)[C@@H](N)CCCN=C(N)N)c2ccc3ccccc3c2)CSSC[C@H](C(=O)N[C@@H](CCCN=C(N)N)C(N)=O)NC(=O)[C@H](CCCNC(N)=O)NC(=O)[C@H](CCCNC(N)=O)NC(=O)[C@H](Cc2ccc(O)cc2)NC(=O)[C@H]2CCCN2C(=O)[C@H](CCCNC(N)=O)NC1=O` the SI [1] was 250 and the SI [2] was > 37.

For `NCCCC[C@@H]1NC(=O)[C@@H](CCCCN)NC(=O)[C@H](CCCNC(N)=O)NC(=O)[C@@H](Cc2ccc(O)cc2)NC(=O)[C@H](NC(=O)[C@@H](NC(=O)[C@H](CCCN=C(N)N)NC(=O)[C@@H](N)CCCN=C(N)N)c2ccc3ccccc3c2)CSSC[C@H](C(=O)N[C@@H](CCCN=C(N)N)C(N)=O)NC(=O)[C@H](CCCNC(N)=O)NC(=O)[C@H](CCCNC(N)=O)NC(=O)[C@H](Cc2ccc(O)cc2)NC(=O)[C@H]2CCCN2C1=O`, the SI [1] was > 59 and the SI [2] was > 15.

For `NCCCC[C@H]1NC(=O)[C@H](CCCN=C(N)N)NC(=O)[C@@H](Cc2ccc(O)cc2)NC(=O)[C@H](NC(=O)[C@@H](NC(=O)[C@H](CCCN=C(N)N)NC(=O)[C@@H](N)CCCN=C(N)N)c2ccc3ccccc3c2)CSSC[C@H](C(=O)N[C@@H](CCCN=C(N)N)C(=O)O)NC(=O)[C@H](CCCNC(N)=O)NC(=O)[C@H](CCCN=C(N)N)NC(=O)[C@H](Cc2ccc(O)cc2)NC(=O)[C@H]2CCCN2C(=O)[C@H](CCCNC(N)=O)NC1=O`, the SI [1] was 28 and the SI [2] was > 20.

In the case of `NCCCC[C@@H]1NC(=O)[C@@H](CCCCN)NC(=O)[C@H](CCCN=C(N)N)NC(=O)[C@@H](Cc2ccc(O)cc2)NC(=O)[C@H](NC(=O)[C@@H](NC(=O)[C@H](CCCN=C(N)N)NC(=O)[C@@H](N)CCCNC(N)=O)c2ccc3ccccc3c2)CSSC[C@H](C(=O)N[C@@H](CCCN=C(N)N)C(=O)O)NC(=O)[C@H](CCCNC(N)=O)NC(=O)[C@H](CCCNC(N)=O)NC(=O)[C@H](Cc2ccc(O)cc2)NC(=O)[C@H]2CCCN2C1=O`, the SI [1] is reported as > 12 and the SI [2] is reported as > 1.5.

For `NCCCC[C@@H]1NC(=O)[C@@H](CCCCN)NC(=O)[C@H](CCCN=C(N)N)NC(=O)[C@@H](Cc2ccc(O)cc2)NC(=O)[C@H](NC(=O)[C@@H](NC(=O)[C@H](CCCN=C(N)N)NC(=O)[C@@H](N)CCCNC(N)=O)c2ccc3ccccc3c2)CSSC[C@H](C(=O)N[C@@H](CCCN=C(N)N)C(N)=O)NC(=O)[C@H](CCCNC(N)=O)NC(=O)[C@H](CCCNC(N)=O)NC(=O)[C@H](Cc2ccc(O)cc2)NC(=O)[C@H]2CCCN2C1=O`, the SI [1] was 12 and the SI [2] was > 2.5.

For `NCCCC[C@H]1NC(=O)[C@H](CCCNC(N)=O)NC(=O)[C@@H](Cc2ccc(O)cc2)NC(=O)[C@H](NC(=O)[C@@H](NC(=O)[C@H](CCCN=C(N)N)NC(=O)[C@@H](N)CCCN=C(N)N)c2ccc3ccccc3c2)CSSC[C@H](C(=O)N[C@@H](CCCN=C(N)N)C(N)=O)NC(=O)[C@H](CCCNC(N)=O)NC(=O)[C@H](CCCN=C(N)N)NC(=O)[C@H](Cc2ccc(O)cc2)NC(=O)[C@H]2CCCN2C(=O)[C@H](CCCNC(N)=O)NC1=O`, the SI [1] was > 2000 and the SI [2] was > 250.

With `NCCCC[C@@H]1NC(=O)[C@@H](CCCCN)NC(=O)[C@H](CCCNC(N)=O)NC(=O)[C@@H](Cc2ccc(O)cc2)NC(=O)[C@H](NC(=O)[C@@H](NC(=O)[C@H](CCCN=C(N)N)NC(=O)[C@@H](N)CCCNC(N)=O)c2ccc3ccccc3c2)CSSC[C@H](C(=O)N[C@@H](CCCN=C(N)N)C(=O)O)NC(=O)[C@H](CCCNC(N)=O)NC(=O)[C@H](CCCN=C(N)N)NC(=O)[C@H](Cc2ccc(O)cc2)NC(=O)[C@H]2CCCN2C1=O` the SI [1] was 22 and the SI [2] was > 2.7.

In the case of `NCCCC[C@@H]1NC(=O)[C@@H](CCCCN)NC(=O)[C@H](CCCNC(N)=O)NC(=O)[C@@H](Cc2ccc(O)cc2)NC(=O)[C@H](NC(=O)[C@@H](NC(=O)[C@H](CCCN=C(N)N)NC(=O)[C@@H](N)CCCN=C(N)N)c2ccc3ccccc3c2)CSSC[C@H](C(=O)N[C@@H](CCCN=C(N)N)C(=O)O)NC(=O)[C@H](CCCNC(N)=O)NC(=O)[C@H](CCCNC(N)=O)NC(=O)[C@H](Cc2ccc(O)cc2)NC(=O)[C@H]2CCCN2C1=O`, the SI [1] is reported as > 90 and the SI [2] is reported as > 11.

For `NCCCC[C@H]1NC(=O)[C@H](CCCN=C(N)N)NC(=O)[C@@H](Cc2ccc(O)cc2)NC(=O)[C@H](NC(=O)[C@@H](NC(=O)[C@H](CCCN=C(N)N)NC(=O)[C@@H](N)CCCNC(N)=O)c2ccc3ccccc3c2)CSSC[C@H](C(=O)N[C@@H](CCCN=C(N)N)C(=O)O)NC(=O)[C@H](CCCNC(N)=O)NC(=O)[C@H](CCCN=C(N)N)NC(=O)[C@H](Cc2ccc(O)cc2)NC(=O)[C@H]2CCCN2C(=O)[C@H](CCCNC(N)=O)NC1=O`, the SI [1] was > 22 and the SI [2] was > 2.8.

In the case of `NCCCC[C@@H]1NC(=O)[C@@H](CCCCN)NC(=O)[C@H](CCCNC(N)=O)NC(=O)[C@@H](Cc2ccc(O)cc2)NC(=O)[C@H](NC(=O)[C@@H](NC(=O)[C@H](CCCN=C(N)N)NC(=O)[C@@H](N)CCCNC(N)=O)c2ccc3ccccc3c2)CSSC[C@H](C(=O)N[C@@H](CCCN=C(N)N)C(N)=O)NC(=O)[C@H](CCCNC(N)=O)NC(=O)[C@H](CCCN=C(N)N)NC(=O)[C@H](Cc2ccc(O)cc2)NC(=O)[C@H]2CCCN2C1=O`, the SI [1] is reported as 53 and the SI [2] is reported as > 15.

In the case of `NCCCC[C@@H]1NC(=O)[C@H](CCCNC(N)=O)NC(=O)[C@H](Cc2ccc(O)cc2)NC(=O)[C@@H](NC(=O)[C@@H](NC(=O)[C@H](CCCN=C(N)N)NC(=O)[C@@H](N)CCCN=C(N)N)c2ccc3ccccc3c2)CSSC[C@@H](C(=O)N[C@@H](CCCN=C(N)N)C(N)=O)NC(=O)[C@H](CCCNC(N)=O)NC(=O)[C@H](CCCN=C(N)N)NC(=O)[C@H](Cc2ccc(O)cc2)NC(=O)[C@@H]2CCCN2C(=O)[C@@H](CCCNC(N)=O)NC1=O`, the CC50 (MT4) is reported as > 100 µM and the CC50 (PBMC (Homo sapiens)) is reported as > 800 µM.

With `NCCCC[C@@H]1NC(=O)[C@H](CCCNC(N)=O)NC(=O)[C@H](Cc2ccc(O)cc2)NC(=O)[C@@H](NC(=O)[C@@H](NC(=O)[C@H](CCCN=C(N)N)NC(=O)[C@@H](N)CCCN=C(N)N)c2ccc3ccccc3c2)CSSC[C@@H](C(=O)N[C@@H](CCCN=C(N)N)C(=O)O)NC(=O)[C@H](CCCNC(N)=O)NC(=O)[C@H](CCCNC(N)=O)NC(=O)[C@H](Cc2ccc(O)cc2)NC(=O)[C@@H]2CCCN2C(=O)[C@@H](CCCCN)NC1=O` the CC50 (MT4) was > 100 µM and the CC50 (PBMC (Homo sapiens)) was > 800 µM.

For `NCCCC[C@@H]1NC(=O)[C@H](CCCN=C(N)N)NC(=O)[C@H](Cc2ccc(O)cc2)NC(=O)[C@@H](NC(=O)[C@@H](NC(=O)[C@H](CCCN=C(N)N)NC(=O)[C@@H](N)CCCN=C(N)N)c2ccc3ccccc3c2)CSSC[C@@H](C(=O)N[C@@H](CCCN=C(N)N)C(=O)O)NC(=O)[C@H](CCCNC(N)=O)NC(=O)[C@H](CCCN=C(N)N)NC(=O)[C@H](Cc2ccc(O)cc2)NC(=O)[C@@H]2CCCN2C(=O)[C@@H](CCCNC(N)=O)NC1=O`, the CC50 (MT4) was > 80 µM and the CC50 (PBMC (Homo sapiens)) was 110 µM.

In the case of `NCCCC[C@@H]1NC(=O)[C@@H](CCCCN)NC(=O)[C@H](CCCNC(N)=O)NC(=O)[C@@H](Cc2ccc(O)cc2)NC(=O)[C@H](NC(=O)[C@@H](NC(=O)[C@H](CCCN=C(N)N)NC(=O)[C@@H](N)CCCN=C(N)N)c2ccc3ccccc3c2)CSSC[C@H](C(=O)N[C@@H](CCCN=C(N)N)C(=O)O)NC(=O)[C@H](CCCNC(N)=O)NC(=O)[C@H](CCCN=C(N)N)NC(=O)[C@H](Cc2ccc(O)cc2)NC(=O)[C@H]2CCCN2C1=O`, the SI [1] is reported as 180 and the SI [2] is reported as > 29.

For `NCCCC[C@H]1NC(=O)[C@H](CCCN=C(N)N)NC(=O)[C@@H](Cc2ccc(O)cc2)NC(=O)[C@H](NC(=O)[C@@H](NC(=O)[C@H](CCCN=C(N)N)NC(=O)[C@@H](N)CCCN=C(N)N)c2ccc3ccccc3c2)CSSC[C@H](C(=O)N[C@@H](CCCN=C(N)N)C(=O)O)NC(=O)[C@H](CCCNC(N)=O)NC(=O)[C@H](CCCNC(N)=O)NC(=O)[C@H](Cc2ccc(O)cc2)NC(=O)[C@H]2CCCN2C(=O)[C@H](CCCNC(N)=O)NC1=O`, the SI [1] was > 100 and the SI [2] was > 13.

With `NCCCC[C@@H]1NC(=O)[C@H](CCCN=C(N)N)NC(=O)[C@H](Cc2ccc(O)cc2)NC(=O)[C@@H](NC(=O)[C@@H](NC(=O)[C@H](CCCN=C(N)N)NC(=O)[C@@H](N)CCCNC(N)=O)c2ccc3ccccc3c2)CSSC[C@@H](C(=O)N[C@@H](CCCN=C(N)N)C(=O)O)NC(=O)[C@H](CCCNC(N)=O)NC(=O)[C@H](CCCNC(N)=O)NC(=O)[C@H](Cc2ccc(O)cc2)NC(=O)[C@@H]2CCCN2C(=O)[C@@H](CCCCN)NC1=O` the CC50 (MT4) was > 100 µM and the CC50 (PBMC (Homo sapiens)) was > 800 µM.

For `NCCCC[C@H]1NC(=O)[C@H](CCCNC(N)=O)NC(=O)[C@@H](Cc2ccc(O)cc2)NC(=O)[C@H](NC(=O)[C@@H](NC(=O)[C@H](CCCN=C(N)N)NC(=O)[C@@H](N)CCCN=C(N)N)c2ccc3ccccc3c2)CSSC[C@H](C(=O)N[C@@H](CCCN=C(N)N)C(=O)O)NC(=O)[C@H](CCCNC(N)=O)NC(=O)[C@H](CCCN=C(N)N)NC(=O)[C@H](Cc2ccc(O)cc2)NC(=O)[C@H]2CCCN2C(=O)[C@H](CCCNC(N)=O)NC1=O`, the SI [1] was > 1600 and the SI [2] was > 200.

With `NCCCC[C@H]1NC(=O)[C@H](CCCN=C(N)N)NC(=O)[C@@H](Cc2ccc(O)cc2)NC(=O)[C@H](NC(=O)[C@@H](NC(=O)[C@H](CCCN=C(N)N)NC(=O)[C@@H](N)CCCNC(N)=O)c2ccc3ccccc3c2)CSSC[C@H](C(=O)N[C@@H](CCCN=C(N)N)C(N)=O)NC(=O)[C@H](CCCNC(N)=O)NC(=O)[C@H](CCCN=C(N)N)NC(=O)[C@H](Cc2ccc(O)cc2)NC(=O)[C@H]2CCCN2C(=O)[C@H](CCCNC(N)=O)NC1=O` the SI [1] was 420 and the SI [2] was > 83.

In the case of `NCCCC[C@@H]1NC(=O)[C@@H](CCCCN)NC(=O)[C@H](CCCNC(N)=O)NC(=O)[C@@H](Cc2ccc(O)cc2)NC(=O)[C@H](NC(=O)[C@@H](NC(=O)[C@H](CCCN=C(N)N)NC(=O)[C@@H](N)CCCN=C(N)N)c2ccc3ccccc3c2)CSSC[C@H](C(=O)N[C@@H](CCCN=C(N)N)C(N)=O)NC(=O)[C@H](CCCNC(N)=O)NC(=O)[C@H](CCCN=C(N)N)NC(=O)[C@H](Cc2ccc(O)cc2)NC(=O)[C@H]2CCCN2C1=O`, the SI [1] is reported as 680 and the SI [2] is reported as > 170.
